Measurements reported in US6310072A (priority 1995, dated 2001).
Entries after “also recorded” stand apart in the source; their conditions may differ. Where two headings read alike, the source gives them in different places.

Tests used:
κ-opioid receptors = settings: in vivo; cited from earlier work
Sprague-Dawley rats [1] = type: in vivo, rat (Sprague-Dawley)
Dark Agouti rats [2] = type: in vivo, rat (Dark Agouti); settings: any time
Dark Agouti rats [3] = tested on: Dark Agouti rats; set-up: species or system rat (Dark Agouti); settings: rat, in vivo, sc
Dark Agouti rats [4] = settings: rat, in vivo, sc
surgical patients [5] = settings: i.v. alone; cited from earlier work
Sprague-Dawley rats [6] = settings: cited from earlier work; for ED50 / Time to maximum antinociception: i.c.v.
humans = settings: naive human adult, every four hours, cited from earlier work
Sprague-Dawley rats [7] = type: in vivo, rat (Sprague-Dawley); remark: listed apart in the source
Sprague-Dawley rats [8] = tested on: Sprague-Dawley rats
[9] = cited from earlier work
[10] = tested on: fetal dorsal root ganglion sensory neurones; settings: cited from earlier work
[11] = tested on: δ-opioid receptors relative to μ-opioid receptors; settings: cited from earlier work
[12] = tested on: δ- relative to κ-opioid receptors; settings: cited from earlier work
κ2a-2 opioid receptor = settings: κ2a-2 subtype; cited from earlier work
surgical patients [13] = type: in vivo, human; settings: i.v. morphine 2.0 mg plus oxycodone 2.0 mg; oxycodone 10 mg alone
Dark Agouti rats [14] = settings: s.c. oxycodone; cited from earlier work
rats = settings: systemic oxycodone; cited from earlier work

In the case of `CCC12CCN(CC3(O)CC3)C(Cc3ccc(O)cc31)C2(C)C` (centres unmarked) [bremazocine], the Antinociception profile (κ-opioid receptors) is given as “antinociception characterised by a rapid onset of action and a single antinociceptive phase”.
For `CCC12CCN(CC3CC3)C(C(=O)c3ccc(O)cc31)C2C` (centres unmarked) [ethylketazocine], the Antinociception profile (κ-opioid receptors) is listed as “antinociception characterised by a rapid onset of action and a single antinociceptive phase”.
In the case of `CN1CC[C@]23c4c5ccc(O)c4O[C@H]2[C@@H](O)C=C[C@H]3[C@H]1C5` [morphine], the “Degree of antinociception (%MPE)” value (Sprague-Dawley rats [1]; i.c.v. morphine 15 nmol alone, any time in 3 h) is reported as no more than 20%, the “Antinociception (% MPE)” value (Dark Agouti rats [2]; i.p. morphine 621 nmol alone) is reported as no more than 50 % MPE and the “Time of onset of antinociception (%MPE≥30%)” value (Dark Agouti rats [3]) is reported as 22 min. For the same compound, the “Failure of eye reflex test” value (Dark Agouti rats [4]) was “approximately 40 % of the time”, the “Failure of righting reflex test” value (Dark Agouti rats [4]) was “approximately 33 % of the time” and the “Dose used for intubation” value (surgical patients [5]) was “approximately 10 mg”. The ED50 (Sprague-Dawley rats [6]) was 34 nmol, the “Lower threshold initial dose producing analgesia” value (humans; intravenous) was 4 to 5 mg and the “Lower threshold initial dose producing analgesia” value (humans; oral) was 30 mg.
In the case of `C=CCN1CC[C@]23c4c5ccc(O)c4O[C@H]2/C(=N/N=C2\CC[C@@]4(O)[C@H]6Cc7ccc(O)c8c7[C@@]4(CCN6CC=C)[C@H]2O8)CC[C@@]3(O)[C@H]1C5` [naloxonazine], the “Duration of action of oxycodone after antagonist” value (Sprague-Dawley rats [7]; rat, in vivo) is reported as 60 min, the “Effect on morphine antinociception” value (Sprague-Dawley rats [7]; rat, in vivo) is reported as “completely attenuated; also recorded: attenuated the antinociceptive effects” and the “Effect on oxycodone antinociception” value (Sprague-Dawley rats [7]; rat, in vivo) is reported as “minor effect on the observed antinocicepfion; also recorded: magnitude of antinociception did not appear to be significantly reduced during the first 15 min; also recorded: almost no effect; also recorded: did not attenuate”. The “Reduction of %MPE values versus untreated rats” value (Sprague-Dawley rats [7]; rat, in vivo) was 5-10%, the Excitatory behaviour (Sprague-Dawley rats [8]; rat, in vivo) was “minor excitatory behaviour (shaking and teeth chattering)” and the “Sensitivity to external stimuli versus untreated rats” value (Sprague-Dawley rats [8]; rat, in vivo) was “more sensitive to external stimuli (touch and sound)”. The “Effect on DAMGO antinociception” value ([9]; naloxonazine) was “antagonise the antinociceptive effects”, the “Effect on DPDPE antinociception” value ([9]; naloxonazine) was “did not reduce the antinociception” and the “Effect on morphine antinociception” value ([9]; naloxonazine) was “antagonise the antinociceptive effects”.
In the case of `C=CCN1CC[C@]23c4c5ccc(O)c4O[C@H]2C(=O)CC[C@@]3(O)[C@H]1C5` [naloxone], the “Reversal of oxycodone/morphine antinociception by naloxone” value (Sprague-Dawley rats [6]; rat, in vivo) is listed as “completely reversible; also recorded: completely attenuated” and the “Action potential duration (APD)” value [10] is listed as “marked shortening of the action potential duration (APD)”.
For `O=C1CC[C@@]2(O)[C@H]3Cc4ccc(O)c5c4[C@@]2(CCN3CC2CC2)[C@H]1O5` [naltrexone], the “Action potential duration (APD)” value [10] is listed as “marked shortening of the action potential duration (APD)”.
With `Oc1ccc2c3c1O[C@H]1c4[nH]c5ccccc5c4C[C@@]4(O)[C@@H](C2)N(CC2CC2)CC[C@]314` [naltrindole] the “%MPE values versus pre-dosing baseline” value (Sprague-Dawley rats [7]; rat, in vivo) was “not significantly different (p>0.05) from pre-dosing baseline values”, the “Effect on DPDPE antinociception” value (Sprague-Dawley rats [7]; rat, in vivo) was “significantly attenuated (p<0.05); also recorded: completely attenuated” and the “Effect on oxycodone antinociception” value (Sprague-Dawley rats [7]; rat, in vivo) was “did not significantly attenuate (p>0.05); also recorded: failed to attenuate”. For the same compound, the “Selectivity for δ- relative to μ-opioid receptors” value [11] was 100 fold and the “Selectivity for δ- relative to κ-opioid receptors” value [12] was 10,000 fold.
In the case of `Oc1ccc2c3c1O[C@H]1c4[nH]c5c(c4C[C@@]4(O)[C@@H](C2)N(CC2CC2)CC[C@]314)C[C@@]1(O)[C@H]2Cc3ccc(O)c4c3[C@@]1(CCN2CC1CC1)[C@H]5O4` [nor-BNI, nor-binaltorphimine], the “Effect on U69,593 antinociception” value (Sprague-Dawley rats [7]; rat, in vivo) is reported as “complete attenuation of the antinociceptive effects; also recorded: markedly attenuated”, the “Effect on bremazocine antinociception” value (Sprague-Dawley rats [7]; rat, in vivo) is reported as “complete attenuation of the antinociceptive effects; also recorded: markedly attenuated” and the “Effect on morphine antinociception” value (Sprague-Dawley rats [7]; rat, in vivo) is reported as “not attenuated; also recorded: no effect; also recorded: did not attenuate”. The “Effect on oxycodone antinociception” value (Sprague-Dawley rats [7]; rat, in vivo) was “complete attenuation of the antinociceptive effects; also recorded: markedly attenuated; also recorded: completely attenuated; also recorded: completely attentuated; also recorded: attenuated only by nor-BNI”, the Ki (κ2a-2 opioid receptor) was 5.9 nM and the “Effect on U69,593 antinociception” value ([9]; nor-BNI) was “antagonize the antinociceptive effects”. The “Effect on bremazocine antinociception” value ([9]; nor-BNI) was “antagonize the antinociceptive effects”.
For `COc1ccc2c3c1O[C@H]1C(=O)CC[C@@]4(O)[C@@H](C2)N(C)CC[C@]314` [oxycodone], the Duration of antinociception (Sprague-Dawley rats [1]; i.c.v. equipotent doses administered separately) was 90 min, the Antinociception (Sprague-Dawley rats [1]; i.c.v. oxycodone 40 nmol alone) was “no antinociception was observed; also recorded: most of the %MPE values were negative” and the “Antinociception (% MPE)” value (Dark Agouti rats [2]; i.p. oxycodone 571 nmol alone) was no more than 50 % MPE. The “Time of peak antinociception” value (Sprague-Dawley rats [7]; i.c.v. oxycodone 200 nmol) was 5 min, the “Time to return to baseline values” (Sprague-Dawley rats [7]; i.c.v. oxycodone 200 nmol) was no more than 90 min and the “Antinociception peak (% MPE)” value (Sprague-Dawley rats [7]; i.c.v. oxycodone 200 nmol, 5 min) was 100 % MPE. The “Duration of action of oxycodone” value (Sprague-Dawley rats [7]; oxycodone 200 nmol i.c.v. alone) was 90 min, the ED50 oxycodone dose (Dark Agouti rats [3]) was 0.44 (±0.04) mg and the “Time of onset of antinociception (%MPE≥30%)” value (Dark Agouti rats [3]) was 12 min. For the same compound, the “Time to maximum antinociception (Tmax)” value (Dark Agouti rats [3]) was 20 min, the “Onset of clinical effect” value (surgical patients [13]) was roughly 5 min and the Catatonic behaviour (Sprague-Dawley rats [8]; i.c.v. oxycodone 200 nmol) was “nor did they exhibit the catatonic behaviour”. The “Spontaneous bladder emptying or incontinence” value (Sprague-Dawley rats [8]; i.c.v., oxycodone 200 nmol, morphine 78 nmol) was “did not exhibit any signs of spontaneous bladder emptying or incontinence”, the “Failure of eye reflex test” value (Dark Agouti rats [4]) was “approximately 40 % of the time” and the “Failure of righting reflex test” value (Dark Agouti rats [4]) was ~50 % of the time. The “Loss of landing reflex” value (Dark Agouti rats [4]) was “no loss of the landing reflex”, the “Loss of righting or landing reflexes” value (Dark Agouti rats [4]) was “no loss of the righting or landing reflexes” and the Sedation (Dark Agouti rats [4]) was “markedly sedated compared with control rats”. The “Dose used for intubation” value (surgical patients [5]) was “approximately 10 mg”, the “Reversal of oxycodone/morphine antinociception by naloxone” value (Sprague-Dawley rats [6]; i.c.v. naloxone (55 nmol)) was “naloxone-reversible antinociceptlon” and the “Time by which antinociception is essentially complete” value (Sprague-Dawley rats [6]; i.c.v. oxycodone, post-dosing) was no more than 90 min. The ED50 (Sprague-Dawley rats [6]) was 78 nmol, the “Time to maximum antinociception” value (Sprague-Dawley rats [6]) was no more than 7 min and the “Time to maximum antinociception” value (Sprague-Dawley rats [6]; listed as Oxycodone) was 5 to 7 min. For the same compound, the “Lower threshold initial dose producing analgesia” value (humans; oral) was 10 mg, the Antinociception (Dark Agouti rats [14]) was “achieved maximum antinociception” and the Catatonic behaviour (rats) was “catatonic behaviour observed”.
